Results as given in patent publication US20250051724A1, “MEDIUM COMPOSITION FOR CULTURING PORCINE PLURIPOTENT STEM CELLS” (SPACE F CORPORATION, priority 2022, published 2025).

Key:
Type in all cases: cell-based
[1] = system: porcine embryonic stem cells; conditions: for proportion of cells undergoing cell division / proliferation rate as the concentration increased (Ki-67): various concentrations in LDN-193189-containing medium
[2] = system: porcine embryonic stem cells
[3] = system: porcine embryonic stem cells; remark: listed apart in the source
Experimental: To analyze the effect of LDN-193189, which is an ALK2/3 inhibitor, on feeder cell-free culture of porcine embryonic stem cells, LDN-193189 cytotoxicity was confirmed through annexin V staining (FIG. 1). […] In addition, treatment at a concentration of 1000 nM or more for 24 hours or more induced apoptosis of most cells.
To confirm the optimal concentration of “FF-embryonic stem cell culture medium” containing LDN-193189 from 100 nM to 1000 nM, the concentration was subdivided and annexin V staining was performed (FIG. 3A). […] In fact, LDN-193189 is known to inhibit the activin A signaling system involved in stem cell proliferation at high concentrations.

[4] = system: porcine embryonic stem cells; test: qPCR gene expression analysis in feeder cell-free culture; conditions: LDN-193189 250 nM, cultured without feeder cells
Experimental: To analyze the expression level of pluripotency-related genes, differentiation-related genes, and the like depending on the culture period, porcine embryonic stem cells were cultured using “FF-embryonic stem cell culture medium” containing 100 nM LDN-193189 (ff-ESCs^LDN+) and “FF-embryonic stem cell culture medium” not containing LDN-193189 (ff-ESCs^LDN−), without feeder cells, and porcine embryonic stem cells were cultured as a control using the aforementioned embryonic stem cell culture medium along with feeder cells (control ESCs).
The cells were obtained on days 2, 4 and 6 after plating using each medium. Total RNA was extracted using TRIzol reagent (Invitrogen, Carlsbad, USA) and cDNA was synthesized using High-Capacity RNA-to-cDNA Kit (Applied Biosystems, Foster City, USA). cDNA was amplified using the DyNAmo HS SYBR Green qPCR kit (Thermo Fisher Scientific, Waltham, USA) with the primer sets listed in Table 1.
In addition, as shown in C and D of FIG. 2, the effect of treatment with LDN-193189 (250 nM), which is an inhibitor of the SMAD1/5 signaling system, on feeder cell-free culture of porcine embryonic stem cells was confirmed.

[5] = system: porcine embryonic stem cells; test: immunological staining of NANOG and SSEA4 in culture medium containing FBS; conditions: culture medium in which KSR was replaced with FBS
Text: In addition, it was confirmed whether the substance helps maintain the pluripotency of porcine embryonic stem cells in a culture medium containing fetal bovine serum (FBS), rather than a serum replacement.
As a result of confirming the pluripotency markers NANOG and SSEA4 through immunological staining, the culture medium containing FBS induced differentiation of porcine embryonic stem cells, and many cell colonies with reduced expression of NANOG and SSEA4 were discovered.

[6] = system: porcine embryonic stem cells; test: qPCR analysis in culture medium containing FBS; conditions: environment containing FBS
[7] = system: porcine embryonic stem cells grown on feeder cells; test: pluripotency marker staining of cells grown on feeder cells
Text: The effect of medium for feeder cell-free culture containing LDN-193189 on porcine embryonic stem cells grown on feeder cells was confirmed.

[8] = system: porcine embryonic stem cells grown on feeder cells; test: qPCR analysis of cells grown on feeder cells
Text: Treatment with LDN-193189 reduced the spontaneous differentiation of porcine embryonic stem cells grown on feeder cells and enhanced the expression of the SSEA4 marker. This is presumed to be because it suppresses the SMAD1/5 signaling system involved in mesodermal differentiation and activates the SMAD2/3 signaling involved in the proliferation of stem cells. In addition, qPCR analysis confirmed that treatment with LDN-193189 reduced the expression of genes involved in the development of various mesodermal tissues.

Cc1c[nH]c(-c2cnc(NCCNc3ccc(C#N)cn3)nc2-c2ccc(Cl)cc2Cl)n1 [CHIR99021]
proportion of cells undergoing cell division / proliferation rate as the concentration increased (Ki-67) [1]: gradually decreased

O=C(Nc1cccc2cccnc12)c1ccc(N2C(=O)[C@@H]3[C@H](C2=O)[C@@H]2C=C[C@H]3C2)cc1 [IWR-1]
proportion of cells undergoing cell division / proliferation rate as the concentration increased (Ki-67) [1]: gradually increased | cytotoxicity [2]: showed cytotoxicity at high concentrations | concentration showing the highest cellular activity ([2]; various concentrations): 0.5 µM

c1ccc2c(-c3cnn4cc(-c5ccc(N6CCNCC6)cc5)cnc34)ccnc2c1 [LDN-193189]
concentration with high cytotoxicity (annexin V staining) [3]: ≥ 1000 nM | expression of genes involved in pluripotency and mesodermal tissue development [4]: restored to the level when cultured on the feeder cells | Ki-67 staining result ([1]; from 100 nM to 1000 nM): no significant difference | final treatment concentration (maximum concentration that inhibits only the BMP signaling system and does not cause cytotoxicity) [2]: 100 nM | FBS-induced differentiation (colonies with reduced expression of NANOG and SSEA4) [5]: alleviated | expression of mesoderm-related genes (qPCR) [6]: reduced | expression of the SSEA4 marker [7]: enhanced | spontaneous differentiation [7]: reduced | expression of genes involved in the development of mesodermal tissues (qPCR) [8]: reduced

FGF2: fibroblast growth factor 2 (hrFGF2, R&D Systems)
proportion of cells undergoing cell division / proliferation rate as the concentration increased (Ki-67) [1]: gradually increased | concentration at which cell activity decreased due to cytotoxicity (WST-8) [2]: ≥ 100 ng/mL

activin A: ActA (activin; activin A) (R&D Systems), cytokine in culture medium
concentration with decreased proliferation rate (Ki-67) [1]: ≥ 0.01 µg/mL | concentration at which cell activity decreased due to cytotoxicity (WST-8) [2]: ≥ 10 ng/mL
